Measurements as given in patent EP1180513A1, “CYCLIC AMIDE COMPOUNDS, PROCESS FOR THE PREPARATION OF THE SAME AND USES THEREOF” (Takeda Chemical Industries, Ltd., priority 1999, dated 2000).
Structures can show the parent of a compound that is named as a salt.

Biological target: T1, human CCR5 (Homo sapiens, UniProt P51681)
T1 construct: expressed in transfected cells
Assay: CCR5 binding inhibition: [125I]-RANTES binding to CHO/CCR5 cells
Conditions: Test Compound 1 µM, 100 pM [125I]-RANTES as ligand, room temperature, 40 minutes, read-out: Inhibitory rate (%) at 1.0 µM
Protocol: CHO-K1 cells were grown in 750ml of tissue culture flask (Becton Dickinson) using Ham's F12 medium (Nihon Pharmaceutical) containing 10% fetal calf serum (Life Tech Oriental) and took off with 0.5 g/L trypsin-0.2 g/L EDTA (Life Tech Oriental). The cells were washed with PBS (Life Tech Oriental), centrifuged (1000 rpm, 5 minutes), and suspended in PBS. With using Gene Pulser (Bio-Rad Laboratories), DNA was introduced into the cells under the conditions shown below. That is, to the cuvette of 0.4 cm gap were added 8×10^6 cells and 10 µg of plasmid pCKR5 for expression of human CCR5, and electroporation was carried out under 0.25 kV of voltage and 960 µF of capacitance. The cells were transferred into Ham's F12 medium containing 10% fetal calf serum, and cultivated for 24 hours. The cells were again took off and centrifuged, and suspended in Ham's F12 medium containing 10% fetal calf serum and 500 µg/ml of geneticin (Life Tech Oriental). The suspension was diluted to give 10^4 cells/ml of the suspension, which was inoculated on 96 well plate (Becton Dickinson) to give resistant cells. The resulting geneticin resistant cells were cultivated in 96 well plate (Becton Dickinson), and cells expressing CCR5 were selected from the geneticin resistant cells. That is, in assay buffer (Ham's F12 medium containing 0.5% BSA and 20 mM HEPES (Wako Pure Chemical, pH 7.2)) to which was added 200 pM of [^125I]-RANTES (Amersham) as ligand, binding reaction was carried out at room temperature for 40 minutes, and the buffer was washed with cooled PBS. To the buffer was added 50 µl/well of 1M NaOH, and the mixture was stirred. Radioactivity was determined with γ-counter to select CHO/CCR5 cells which specifically bind to the ligand.
The CHO/CCR5 were inoculated on 96 well microplate (5×10^4 cells/well) and cultivated for 24 hours. The medium was removed by means of suction, and to each well was added assay buffer containing Test Compound (1 µM) and then 100 pM of [^125I]-RANTES (Amersham) as ligand. Binding assay was carried out at room temperature for 40 minutes, and assay buffer was removed by means of suction. Each well was washed twice with cooled PBS, and 200 µl of Microscint-20 (Packard Instrument, Inc.) was added to each well. Radio-activity was determined with Top-Count (Packard Instrument, Inc.).
According to the method described above, inhibition rate of Test Compound to CCR5 binding.

T1 sequence (P51681 whole entry): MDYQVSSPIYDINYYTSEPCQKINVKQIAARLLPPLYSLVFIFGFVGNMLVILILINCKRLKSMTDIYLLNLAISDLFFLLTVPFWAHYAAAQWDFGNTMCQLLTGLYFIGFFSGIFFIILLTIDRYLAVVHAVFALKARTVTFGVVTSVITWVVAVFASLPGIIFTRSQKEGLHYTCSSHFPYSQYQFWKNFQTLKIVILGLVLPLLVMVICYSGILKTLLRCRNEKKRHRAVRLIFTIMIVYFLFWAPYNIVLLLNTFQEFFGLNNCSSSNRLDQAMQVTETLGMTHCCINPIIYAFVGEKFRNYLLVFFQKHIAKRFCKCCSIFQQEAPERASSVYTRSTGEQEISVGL

| Compound | inhibition at 1 µM |
| --- | --- |
| O=C1CC(C(=O)N(CCCN2CCC(Cc3ccccc3)CC2)c2ccccc2)CN1c1ccccc1 (stereo not drawn) [Example 52, N-[3-(4-benzyl-1-piperidinyl)propyl]-5-oxo-N,1-diphenyl-3-pyrrolidinecarboxamide] | 76% |
| CN1CC(C(=O)N(CCCN2CCC3(C=Cc4ccccc43)CC2)c2ccccc2)CC1=O (stereo not drawn) [Example 8, N-[3-(indene-1-spiro-4'-piperidin-1'-yl)propyl]-1-methyl-5-oxo-N-phenyl-3-pyrrolidinecarboxamide fumarate] | 24% |
| O=C1CC(C(=O)N(CCCN2CCC(Cc3ccccc3)CC2)c2ccccc2)CN1Cc1ccccc1Cl (stereo not drawn) [Example 76, N-[3-(4-benzyl-1-piperidinyl)propyl]-1-(2-chlorobenzyl)-5-oxo-N-phenyl-3-pyrrolidinecarboxamide] | 91% |
| O=C1CC(C(=O)N(CCCN2CCC(Cc3ccccc3)CC2)c2ccccc2)CN1Cc1ccccc1 (stereo not drawn) [Example 51, 1-benzyl-N-[3-(4-benzyl-1-piperidinyl)propyl]-5-oxo-N-phenyl-3-pyrrolidinecarboxamide] | 92% |
| CN1CC(C(=O)N(CCCN2CCC(Cc3ccc(F)cc3)CC2)c2ccc(Cl)c(Cl)c2)CC1=O (stereo not drawn) [Example 84, N-(3,4-dichlorophenyl)-N-{3-[4-(4-fluorobenzyl)-1-piperidinyl]propyl}-1-methyl-5-oxo-3-pyrrolidinecarboxamide hydrochloride] | 92% |
| CN1CC(C(=O)N(CCCN2CCC(Cc3ccccc3)CC2)c2ccccc2)CC1=O (stereo not drawn) [Example 1, N-[3-(4-benzyl-1-piperidinyl)propyl]-1-methyl-5-oxo-N-phenyl-3-pyrrolidinecarboxamide hydrochloride] | 57% |
| CN1CC(C(=O)N(CCCN2CCC(Cc3ccccc3)CC2)c2ccc(Cl)c(Cl)c2)CC1=O (stereo not drawn) [Example 23, N-[3-(4-benzyl-1-piperidinyl)propyl]-N-(3,4-dichlorophenyl)-1-methyl-5-oxo-3-pyrrolidinecarboxamide hydrochloride] | 95% |
| CN1CC(C(=O)N(CCCN2CCC(Cc3ccccc3)CC2)Cc2ccccc2)CC1=O (stereo not drawn) [Example 62, N-benzyl-N-[3-(4-benzyl-1-piperidinyl)propyl]-1-methyl-5-oxo-3-pyrrolidinecarboxamide] | 67% |
| CN1CC(C(=O)N(CCCCN2CCC(C(=O)c3ccc(F)cc3)CC2)c2ccccc2)CC1=O (stereo not drawn) [Example 17, N-{4-[4-(4-fluorobenzoyl)-1-piperidinyl]butyl}-1-methyl-5-oxo-N-phenyl-3-pyrrolidinecarboxamide] | 22% |
| CN1CC(C(=O)N(CCCN2CCC(C(=O)c3ccc(F)cc3)CC2)c2ccccc2)CC1=O (stereo not drawn) [Example 13, N-{3-[4-(4-fluorobenzoyl) -1-piperidinyl]propyl}-1-methyl-5-oxo-N-phenyl-3-pyrrolidinecarboxamide] | 40% |
| CN1CC(C(=O)N(CCCN2CCC(Cc3ccccc3)CC2)c2cccc(Cl)c2)CC1=O (stereo not drawn) [Example 38, N-[3-(4-benzyl-1-piperidinyl)propyl]-N-(3-chlorophenyl)-1-methyl-5-oxo-3-pyrrolidinecarboxamide hydrochloride] | 82% |
| O=C1CC(C(=O)N(CCCN2CCC(Cc3ccccc3)CC2)c2ccccc2)CN1CC(F)(F)F (stereo not drawn) [Example 93, N-[3-(4-benzyl-1-piperidinyl)propyl]-5-oxo-N-phenyl-1-(2,2,2-trifluoroethyl)-3-pyrrolidinecarboxamide] | 90% |
